Like-named read-outs stand apart in the source and are kept apart here.
Columns and labels:
[1] = tested on: NCI-H358; assay: Tumor cell anti-proliferation assay (CTG assay), NCI-H358; type: cell-based; details: NCI-H358, 3-days incubation, CTG; read-out: IC50 NCI-H358
Protocol: (§1) Assay 3: Tumor Cell Anti-Proliferation Assay (CTG Assay)
(§2) Tested tumor cell lines (MIA PaCa-2, NCI-H358, and A549) were seeded to the 96-well plate for overnight, then cells were treated with the test compound at 9 serially diluted concentrations in triplicate. After 3-days incubation with the test compound, the CTG assay was performed to evaluate the IC50. The 3 cell lines were tested in the same manner. Cisplatin were used as the positive control.
(§3) Day −1: Cell Plating for Cell Lines
(§4) 1. Adjust the cell concentration to the appropriated number with the medium, and for each well of a 96-well plate, add 90 μl cell suspensions (Cell concentration will be adjusted according to the data base or density optimization assay). 2. Incubate the plates for overnight in humidified incubator at […] with 5% CO2.
(§5) Day 0: T0 Plate Reading and Compound Treatment
(§6) 3. Add 10 μL culture medium to each well of plate A for T0 reading.
(§7) 4. Equilibrate the plate and its content at RT for approximately 30 min.
(§8) 5. Add 50 μL CellTiter-Glo® Reagent to each well for T0 reading.
(§9) 6. Mix contents for 2 minutes on an orbital shaker to facilitate cell lysis.
(§10) 7. Allow the plate to incubate at room temperature for 10 minutes to stabilize the luminescent signal. Note: Uneven luminescent signal within standard plates can be caused by temperature gradients, uneven seeding of cells or edge effects in multiwall plates.
(§11) 8. Place a black BackSeal sticker to the bottom of each plate.
(§12) 9. Record luminescence using an Envision Multi Label Reader.
(§13) 10. Dilute the test compound and the positive control (Cisplatin). Add 10 μL of 10× test compound working solutions into the corresponding wells. Incubate the test plates in the humidified incubator at 37° C. with 5% Co2.
(§14) Day 3: Plate Reading for 3-Day Assay
(§15) 11. Monitor under the microscope to make sure that the cells in control wells are healthy.
(§16) 12. After three days incubation, add 50 μL CellTiter-Glo® Reagent to each well.
(§17) 13. Mix contents for 2 minutes on an orbital shaker to facilitate cell lysis.
(§18) 14. Allow the plate to incubate at room temperature for 10 minutes to stabilize the luminescent signal.
(§19) 15. Note: Uneven luminescent signal within standard plates can be caused by temperature gradients, uneven seeding of cells or edge effects in multiwall plates.
(§20) 16. Place a black BackSeal sticker to the bottom of each plate.
(§21) 17. Record luminescence using an Envision Multi Label Reader.
(§22) In order to calculate IC50, a dose-response curve was fitted using nonlinear regression model with a sigmoidal dose response. The formula of the surviving rate is shown below, and the IC50 was automatically produced by GraphPad Prism 5.0.
(§23) The surviving rate […]=(LumTest compound−LumMedium control)/(LumNone treated-LumMedium control)×100%.
(§24) LumNone treated-LumMedium control is set as 100% o and LumMedium control is set as […]. T0 value will be presented as percentage of LumNone treated.

[2] = target: KRAS G12C (Homo sapiens, UniProt P01116, G12C); assay: KRAS GDP FI assay; type: biochemical; details: kinetic reading Ex580/Em620 for 120 min
Sequence of KRAS G12C (P01116 1-188 isoform P01116-2 G12C): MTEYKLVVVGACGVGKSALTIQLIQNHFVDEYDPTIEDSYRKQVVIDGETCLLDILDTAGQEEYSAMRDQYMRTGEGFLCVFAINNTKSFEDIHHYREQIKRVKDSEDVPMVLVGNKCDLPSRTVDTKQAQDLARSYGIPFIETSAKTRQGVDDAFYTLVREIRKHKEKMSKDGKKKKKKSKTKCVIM
Excerpt: Assay 2: KRAS GDP FI Assay
1. Prepare compound dilution plate.
2. Transfer Inhibitor/DMSO to assay plate by Echo.
3. Prepare 1× assay buffer.
4. Prepare KRAS G12C mix & SOS1 mix & GTP mix & detection reagent mix.
5. Add KRAS G12C mix, SOS1 mix, GTP mix.
6. Add detection reagent mix to assay plate.

[3] = tested on: MIA PaCa-2; assay: Tumor cell anti-proliferation assay (CTG assay), MIA PaCa-2; type: cell-based; details: MIA PaCa-2, 3-days incubation, CTG, read-out: IC50 MIA PaCa-2
Protocol: as §1, §2, §3, §4, §5, §6, §7, §8, §9, §10, §11, §12, §13, §14, §15, §16, §17, §18, §19, §20, §21, §22, §23, §24

[4] = tested on: A549; assay: Tumor cell anti-proliferation assay (CTG assay), A549; type: cell-based; details: A549, 3-days incubation
Protocol: as §1, §2, §3, §4, §5, §6, §7, §8, §9, §10, §11, §12, §13, §14, §15, §16, §17, §18, §19, §20, §21, §22, §23, §24

[5] = Pharmacokinetics study in plasma of ICR mice, intravenous or oral administration; type: in vivo; details: male ICR mice
Protocol: The purpose of this study is to determine the pharmacokinetics parameters in plasma of compounds in ICR mice following intravenous or oral administration.
The formulations were based on sponsor's recommendation and will be prepared by the Testing Facility.
Species and Strain: ICR Mice (Male)
Source: Sino-British SIPPR Lab Animal Ltd, Shanghai
Number of Animals: Ordered: 8; Needed: 6
The test article was be administered via a single IV or PO dosing.
IV group: Post-dose at 5 min, 15 min, 30 min, 1 h, 2 h, 4 h, 8 h and 24 h.
PO group: Post-dose at 15 min, 30 min, 1 h, 2 h, 4 h, 6 h, 8 h and 24 h.
30˜40 μL/sample. Samples were be placed in tubes containing heparin sodium and stored on ice until centrifuged.
The PK blood samples were centrifuged at approximately 6800G for 6 minutes at 2-8° C. and the resulting plasma was transferred to appropriately labeled tubes within 2 hour of blood collection/centrifugation and stored frozen at approximately −70° C.
Method development and biological samples analysis for the test articles (Sodium heparin anticoagulant) were be performed by Testing Facility by means of LC-MS/MS. The analytical results were be confirmed using quality control samples for intra-assay variation. The accuracy of >66.7% of the quality control samples were be between 80-120% of the known value(s).
Pharmacokinetics Analysis
Standard set of parameters including Area Under the Curve (AUC(0-t) and AUC(0-∞)), elimination half-live (T1/2), maximum plasma concentration (Cmax) and time to reach maximum plasma concentration (Tmax) and other parameters were be calculated using Phoenix WinNonlin 7.0 (Pharsight, USA) by the Study Director.

[6] = mouse, 1 mg/kg, IV, 1 mpk, plasma
[7] = mouse, 10 mg/kg, PO, 10 mpk, fasted, plasma

| IC50 [1] [nM] | IC50 [2] [nM] | IC50 ([3]; Homo sapiens, MIA PaCa-2, 72 h) [nM] | IC50 ([4]; Homo sapiens, 72 h) [nM] | IC50 [3] [nM] | Structure (SMILES) | also measured |
| --- | --- | --- | --- | --- | --- | --- |
| 1460 |  |  |  |  | C=CC(=O)N1CCN(c2nc(OC[C@@H]3CCCN3C)nc3c(=O)n(-c4cccc5cccc(Cl)c45)c(C(F)(F)F)nc23)[C@@H](C)C1 (single isomer, unassigned) [Compound 24-b] |  |
| 148 | 89 |  |  |  | C=CC(=O)N1C[C@H](C)N(c2nc(OC[C@@H]3CCCN3C)nc3c(=O)n(-c4cccc5cccc(Cl)c45)c(C(F)(F)F)nc23)[C@@H](C)C1 (single isomer, unassigned) [Example 29-a] |  |
| 28.6 | 127 | 906 | > 10000 |  | C=CC(=O)N1C[C@H](C)N(c2nc(OC[C@@H]3CCCN3C)nc3c(=O)n(-c4cccc5cccc(Cl)c45)c(C(F)(F)F)nc23)[C@@H](C)C1 (single isomer, unassigned) [Example 29-b] | F ([5]; PO 10 mpk vs IV 1 mpk): 26.74%; AUC [5, 6]: 0.993 µM·h; C0 [5, 6]: 659 nM; Vd [5, 6]: 2.97 L/kg; clearance [5, 6]: 25.7 mL/min/kg; half-life [5, 6]: 1.59 h; AUC [5, 7]: 2.58 µM·h; Cmax [5, 7]: 729 nM; Tmax [5, 7]: 0.42 h; half-life [5, 7]: 2.39 h |
| 202 |  | 1230 | > 10000 |  | C=CC(=O)N1C[C@H](C)N(c2nc(OC[C@@H]3CCCN3C)nc3c(=O)n(-c4cccc5cccc(F)c45)c(C(F)(F)F)nc23)[C@@H](C)C1 (single isomer, unassigned) [Example 34-a] |  |
| 82 |  |  |  | 679 | C=CC(=O)N1C[C@H](C)N(c2nc(OC[C@@H]3CCCN3C)nc3c(=O)n(-c4cccc5cccc(F)c45)c(C(F)(F)F)nc23)[C@@H](C)C1 (single isomer, unassigned) [Example 34-b] | IC50 [4]: > 10000 nM |
| 1180 |  |  | > 10000 | 2650 | C=CC(=O)N1C[C@H](C)N(c2nc(OC[C@@H]3CCCN3C)nc3c(=O)n(-c4cc(OC)cc5ccccc45)c(C(F)(F)F)nc23)[C@@H](C)C1 (single isomer, unassigned) [Example 35-a] |  |
